Measurements as given in patent US9439916B2, “Composition for decelerating the aging in the organism and for extending the life time thereof and the use of said composition” (MITOTECH SA, priority 2007, dated 2016).

Key:
Format in all cases: in vivo
SHR mice = test: Life span of outbred SHR mice receiving SkQ1 with drinking water; conditions: for animals remained alive in 707 days of the experiment: SHR mice, SkQ1 with drinking water lifelong, control 8%
Protocol: (§1) An experiment with outbred SHR mice was carried out. The mice were divided into four groups (25 animals per each group). The three groups received a certain amount of SkQ1 with drinking water throughout their lives, and the fourth (control) group received water without SkQ1. Dose of SkQ1 is given in nanomoles per kg of animal weight per day.
(V. N. Anisimov, I. N. Alimova, D. A. Baturin, I. G. Popovich, M. A. Zabezhinski, S. V. Rosenfeld, K. G. Manton, A. V. Semenchenko, A. I. Yashin (2003) Dose-dependent effect of melatonin on life span and spontaneous tumor incidence in female SHR mice. Exp Gerontol. 38, 449-461).

female SHR mice = test: Age-related changes in estrous function of female SHR mice
Protocol: as §1
With increasing the duration of the observation period, tendency of decelerating age-related disorders in estrous function in experimental animals becomes more pronounced, which were expressed as increase in the duration of cycle and lowering the frequency of regular cycles. For example, in the 2nd cohort in 15-month-old experimental animals received SkQ1 at a dose of 0.01 nanomoles per day, the frequency of regular cycles was 94%, whereas in the control—67%.

Drosophila melanogaster = test: Life span of fruit flies, line w1118, fed SkQ1
Protocol: Isogenous laboratory Drosophila line w^1118 in which all individuals have the same genotype was chosen for the experiments, thus eliminating the influence of genetic differences between individuals on the results of experiments. The mitochondria-targeted antioxidant SkQ1 at a concentration of 1.85 nM was tested. Stock SkQ solution was diluted in distilled water. Adult flies were administered the compound throughout their lives. Since adult flies can feed on food located on the surface, it was decided to spread the SkQ1 solution of a corresponding concentration on the surface of freshly prepared medium poured into test tubes containing the flies. Virgin females and males of line w^1118 selected during the day were placed in tubes, each tube contained five individuals (males and females separately), in standard medium. In control tubes, 100 μl of distilled water without SkQ was spread on standard medium surface; in test tubes, 100 μl of the test compound at a selected concentration was spread on standard medium surface. The number of live flies in each tube was recorded daily, once a week flies were transferred to a corresponding fresh medium. All tubes were incubated at 25° C. In each experiment, 100 individuals (20 tubes) were analyzed.

p53 (-/-) mice = test: Life span of p53 gene knockout mice; conditions: 0.1 nmoles per mouse per day (5 nM/kg/day) with drinking water
Description: Mice lacking the p53 gene (p53−/−) can not synthesize the p53 protein, so-called “guardian of the genome”, and can serve as a model of accelerated ageing and death of the organism caused by cancer [for more details, see A. A. Sablina, A. V. Budanov, G. V. Ilyinskaya, L. S. Agapova, J. E. Kravchenko, P. M. Chumakov (2005) The antioxidant function of the p53 tumor suppressor //Nature Med., 11, 1306-1313)].
Based on the previously conducted PCR analysis detecting p53−/−, p53+/− and p53+/+ mice in the progeny of heterozygous (p53+/−) animals, the two groups of mice were drawn up which received: • clean drinking water; • water supplemented with SkQ1 (0.1 nmoles of the preparation per mouse per day (5 nM/kg/day)).

[1] = test system: cat with senile generalized progressive retinal dystrophy; test: Veterinary clinical trial, senile blindness in a cat; conditions: 15 years, daily instillation of 250 nM SkQ1 solution, pH 6.5
Protocol: A) Patient—cat, breed—European Shorthair, age—15 years. Diagnosis—retinitis, papillitis, senile generalized progressive retinal dystrophy. Clinical signs—depigmentation of t. lucidum, the optic disk (OD) is violet. Retinal detachment. Vision is absent.
Treatment—daily instillation of 250 nM SkQ1 solution (in physiological solution at pH 6.5).

[2] = test system: horse with senile blindness; test: Veterinary clinical trial, senile blindness in a horse
Description: B) Patient—horse, gelding, not thoroughbred, age—20 years. Diagnosis—senile blindness associated with degeneration of the retina and its vessels. Clinical signs—shortening and thinning of retinal vessels emanating from the optic disk, depigmentation of t. lucidum t. nigrum, thinning of the retina over the entire surface of eye fundus. As a result, Choroid blood vessels in the form of straight lines are well visualized, posterior polar senile cataract is detected. The animal cannot see during the last eight months.
Treatment—daily instillation of 250 nM SkQ1 solution (in physiological solution at pH 6.5), and since the 3rd month of treatment—2 times a day.

OXYS rats [3] = test: Bone tissue state by X-ray densitometry (osteoporosis); conditions: two 45-day courses of 50 nanomoles per kg per day, studied at 6 months
Protocol: Experiments were conducted on the two lines of rats—Wistar and OXYS. Genetically determined metabolic defect, manifesting itself as decreased resistance of OXYS rats towards oxidative stress, leads to changes in their organism which may be regarded as accelerated ageing syndrome. In particular, reduced bone mineral density in OXYS rats, as compared to Wistar rats, is observed. Such changes are also observed in osteoporosis in humans that allows us to consider these animals as an adequate model of senile osteoporosis in humans.
Wistar and OXYS rats,—control rats and those who received two courses of SkQ1 (50 nanomoles per kg of body weight per day), were studied. The animals received the preparation since 1.5 and 4 months of age for 45 days. At the age of 6 months, bone tissue state was studied by X-ray densitometry.

OXYS male rats = test: Sexual motivation model: male near receptive female behind a barrier; conditions: one year old OXYS males
Description: […] To do this, an experimental model of sexual arousal was used—males were kept under conditions allowing them to see the receptive female, perceive the female's smell, but excluding physical contact with the female. Under these conditions, male rats and male mice show increase in blood testosterone level and typical motivational behavior.

OXYS rats [4] = test: Morris water maze test of learning ability; conditions: 16-month-old OXYS rats, 250 nanomoles per kg of body weight since 1.5 months
Description: The Morris water maze test is actively used for studies on learning and long-term spatial memory in animals. The method of Morris allows to evaluate strategies for behavior, dynamics of skill formation, to detect even weak differences in behavior. This test evaluates the ability of an animal, swimming in the opaque water of the pool and looking at the signs on its sides, to learn how to find the invisible, hidden platform under water, no matter from what point of the perimeter of the pool the animal was released.
In subsequent experiments, 4 groups of 16-month-old animals: control Wistar and OXYS rats, and groups received the preparation since 1.5 months at a dose of 250 nanomoles per kg of body weight, were used. A latent period of time spent by rats to find the platform depended only on the genotype—it took longer in OXYS rats than in Wistar rats—OXYS rats coped worse with the task.

rats = test: Behavioral tests "open field" and "elevated cruciform maze"

CC1=C(C)C(=O)C(CCCCCCCCCC[P+](c2ccccc2)(c2ccccc2)c2ccccc2)=CC1=O [SkQ1]
animals remained alive in 707 days of the experiment (SHR mice; first of three test groups (dose not given)): 36%
animals remained alive in 707 days of the experiment (SHR mice; second of three test groups (dose not given)): 28%
animals remained alive in 707 days of the experiment (SHR mice; third of three test groups (dose not given)): 24%
life span of SHR mice (SHR mice; optimal doses (1 nanomole per animal per day), versus control): much longer life span
frequency of regular estrous cycles (female SHR mice; 2nd cohort, 15-month-old female SHR mice, 0.01 nanomoles per day, control 67%): 94%
age-related changes in estrous function (female SHR mice; female SHR mice received SkQ1, compared to the control group): less pronounced age-related changes in estrous function
fraction of individuals aged 70 days and older (Drosophila melanogaster; 1.85 nM SkQ1, control 0.18, P=0.0056): 0.48
average life expectancy (Drosophila melanogaster; 1.85 nM SkQ1 on medium surface, 25° C., control 58 days, P=0.0012): 66 days
life span of p53 (-/-) mice (p53 (-/-) mice): dramatic increase of the life span
vision after 10 days of the treatment [1]: the pupil began to respond to light, the cat began to play with the ball and see even small objects
vision after 21 days of the treatment [1]: vision retained
vision after 90 days of the treatment ([2]; 20 years, instillation of 250 nM SkQ1 solution daily, 2 times a day since 3rd month): The vision was restored
growth of new blood vessels from the optic disk ([2]; after 90 days of the treatment with 250 nM SkQ1 instillation): 40
bone mineral density of femur and tibia (OXYS rats [3]): reliably increased
total mass of bone tissue (OXYS rats [3]): reliably increased
time spent by a male rat near a female rat separated by a barrier (OXYS male rats; 50 nanomoles of SkQ1, versus control males): reliably increased
time spent by a male rat near a female rat separated by a barrier (OXYS male rats; 250 nanomoles of SkQ1, versus control males): reliably increased
ability to learn (latent period to find the platform in the Morris maze) (OXYS rats [4]): improved the ability of OXYS rats to learn
stress-protective effect (rats; Wistar rats): clear stress-protective effect
search and exploratory activity of rats (rats; open field and elevated cruciform maze): positive effect
